Among the data in a melting point compilation (Tetko et al.; mined from patent text by program, amines drawn as free bases though some values may be those of a salt) are melting point values, retold here.

In general, melting point refers to the temperature of the solid-liquid transition.

Molecules are shown by their SMILES.

Molecule `CCOC(=O)C1CCN(c2ncc(NS(=O)(=O)c3ccccc3Br)c(NCc3ccc4c(c3)OCO4)n2)CC1` yielded a melting point of 160 to 161 °C.

The molecule `C=CCn1c(=O)c2cnc(Nc3ccc(OCCN(CC)CC)cc3)nc2n(C(C)C)c1=O` registered a melting point of 90 to 96 °C.

The molecule `NC(=O)NCc1ccc2c(c1)CN(C1CCC(=O)NC1=O)C2=O` (centres undefined) had a melting point of 224 to 226 °C.

On to `O=C(NOCC(O)CN1CCCCC1)NC1CCCCC1` (centres undefined), for which the melting point was 108 to 110 °C.

In turn, `Cc1cc(=O)c2ccc(OCCCN3CCC(NC(=O)Cc4ccccc4)CC3)cc2o1` registered a melting point of 172 to 173 °C.

The molecule `C[C@@H]1CC=C(S(=O)(=O)c2ccccc2)[C@H](O)C1` displayed a melting point of 79 to 81 °C.

In turn, `Clc1ccc2cc(CBr)c3ccsc3c2c1` came in with a melting point of 144 to 146 °C.

With `CS(=O)(=O)c1ccc(-c2[nH]nc(C(CCCO[N+](=O)[O-])=NO)c2-c2ccc(C#N)cc2)cc1`, the melting point was 146 to 147 °C.

The molecule `Oc1cccc2c1OCO2` had a melting point of 62 to 63 °C.

`CCCCC(C(=O)O)n1cncn1` (centres undefined): the melting point was 141 to 143 °C.

Take `COc1ccc(C(=O)NCCCCCCCNC(=O)c2ccc(OC)c(Cl)c2)cc1Cl`: the melting point lay within 132 to 133 °C.

The molecule `COC(=O)NC1=NCC(c2cccc(OC)c2)CN1` (centres undefined) yielded a melting point of 218 to 221 °C.

On to `CCCNc1ncnc2c1ncn2CCCN1CCN(c2ccccc2)CC1`, for which the melting point is 67 to 68 °C.

On to `Cc1sc(C(=O)O)c2c1-c1c(cnn1Cc1ccccc1)CC2`, for which the melting point lay in the range of 231 to 232 °C.

`COc1cc(Nc2c(C#N)cnc3cc(-c4csc(CN5CCOCC5)c4)ccc23)c(Cl)cc1C` returned a melting point of 168 to 170 °C.

As to `COc1ccc(CSc2nnc(-c3ccn4ncnc4c3)o2)cc1C(F)(F)F`, the melting point lay in the range of 178 to 179 °C.

`CONC(NC(C)=O)C(=O)NCc1ccccc1` (centres undefined): the melting point is 95 to 97 °C.

Molecule `COc1ccc(OC)c(C(=O)C#CC(=O)O)c1` came in with a melting point of 91 to 93 °C.

With `Cc1cc(C#N)cc(C(=O)c2[nH]c(=O)[nH]c(=O)c2C(C)(C)C)c1`, the melting point was 270 to 271 °C.

Regarding `CCOC(=O)C(=O)Nc1ccc(C#N)c(C#N)c1`, the melting point worked out at 194 °C.

For `CCCCCc1ccc(C(=O)CCC(=O)O)cc1`, the melting point fell in the range of 98 to 100 °C.

As to `CCOC(=O)c1ccc(Sc2cc3c(cc2C)C(C)(C)CCC3(C)C)cc1O`, the melting point was in the range of 74 to 75 °C.

The molecule `CN(C)C(=O)c1c(C(=O)NN=Cc2ccc3ccccc3c2)[nH]c2ccccc12` displayed a melting point of 256 to 260 °C.

As to `Cc1nn(-c2cccc(C(F)(F)F)c2)cc1C(=O)N(CC(=O)O)c1ccc(OCC(C)(C)C)c(C#N)c1`, the melting point lay within 110 to 112 °C.

Molecule `O=C1NC(=O)C(=Cc2ccc3c(c2)CCC(Cc2ccccc2)N3Cc2ccccc2)S1` (centres undefined) registered a melting point of 199 to 201 °C.

`Cc1ccc(Nc2c([N+](=O)[O-])ccc(Cl)c2C(=O)O)cc1` had a melting point of 192 to 197 °C.

Molecule `O=C1Cc2c(OCCN3CCc4ccccc4C3)ccc(F)c2N1` displayed a melting point of 230 to 235 °C.

The molecule `CCCCCCCNC(=O)N(C)c1cccc(-c2ccc(C=C(C)C(=O)O)cc2)c1` displayed a melting point of 79 °C.

For `CC(C)(C)OC(=O)NO[C@H]1CC=C[C@H]1NC(=O)OCC(Cl)(Cl)Cl`, the melting point was 83 to 84 °C.

In turn, `Clc1ccc(-n2nc3c(c2Br)CCC3)cc1` displayed a melting point of 109 to 112 °C.

The molecule `COc1cc2nc(-c3ccc(Cl)cc3)nc(Cl)c2cc1OC` had a melting point of 204 to 206 °C.

The molecule `CC(C)(C)NS(=O)(=O)c1ccccc1-c1ccc(NC(=O)N(Cc2cccc(C(=N)N)c2)c2ccccc2)cc1` returned a melting point of 140 to 141 °C.

As to `CC(C)(C)c1ccc(NC=CS(=O)(=O)F)cc1`, the melting point lay in the range of 67 to 70.5 °C.

`CC(=O)Nc1ccc([C@@H]2CO2)cn1` came in with a melting point of 96 to 98 °C.

Molecule `COc1ccc(-c2ccc(C(=O)Nc3ccc4cc(CN5CCCCCC5)cnc4c3C)cc2)cc1` came in with a melting point of 165 to 167 °C.

Take `CCCc1c(OCC2(O)CCCCC2Sc2ccc(C(=O)CCC(=O)O)cc2)ccc(C(C)=O)c1O` (centres undefined): the melting point is 55 to 57 °C.

As for `O=C(CCC1CCCC1)Nc1ccc(N2CCC(NC[C@H](O)COc3cccc4[nH]c(=O)[nH]c34)CC2)cc1`, the melting point lay within 140 to 144 °C.

`Cc1nnc(-c2ccc3occ(-c4ccc5sccc5c4)c3c2)o1`: the melting point lay within 159 to 160 °C.

Turning to `CCOC(=O)Nc1c(Cl)cc2nc(O)c(O)nc2c1[N+](=O)[O-]`, the melting point is over 300 °C.

Turning to `CC1Cc2cc3c(cc2C(C=Cc2ccc(F)cc2)=NN1)OCO3` (centres undefined), the melting point lay within 170 to 174 °C.

`CCN(C)CCOc1ccc(/C=C/C(=O)O)cc1` registered a melting point of 206 °C.

The molecule `COc1cccc(/C(C#N)=C/c2ccc(OC)c(OC3CCCC3)c2)c1` returned a melting point of 83 to 85 °C.

Regarding `COCCCNC(=O)Nc1ccc(N(C)C)cc1C(=O)NCC1CCN(C(c2ccccc2)c2ccccc2)CC1`, the melting point lay in the range of 191 to 193 °C.

The molecule `CCC1CC(=O)N(Cc2cccc(NS(C)(=O)=O)c2)N=C1c1ccc(OC)c(OC2CCCC2)c1` (centres undefined) displayed a melting point of 113 °C.

In turn, `CSc1nnc(SCc2ccc(Cl)cc2)s1` came in with a melting point of 77 to 78 °C.

On to `Cn1c2ccccc2c(=O)n2nc(C(N)=O)cc12`, for which the melting point fell in the range of 327 to 330 °C.

`CCOC(=O)c1ccc(N2CCN(C(=O)CCc3cc(C(C)(C)C)c(O)c(C(C)(C)C)c3)CC2)cc1` had a melting point of 85 to 86 °C.

In the case of `O=C(NC1CCN(CCCc2ccccc2)CC1)C1=Cc2cnc3cccc(n23)S1`, the melting point lay within 190 to 191 °C.

The molecule `O=C(O)c1cccnc1N1CCN(CCOC2c3ccccc3CSc3ccccc32)CC1` (centres undefined) registered a melting point of 217 to 218 °C.

Regarding `COC(=O)c1ccccc1Oc1ccc(C)cc1`, the melting point was in the range of 31 to 34 °C.

`N#Cc1ccc(OCc2ccc(Cl)c(Cl)c2)cc1` came in with a melting point of 222 to 223 °C.

`c1ccc2c(SCc3ccncc3)ncnc2c1` returned a melting point of 117 to 118 °C.

The molecule `CC(C)(C)c1ccc(CCOc2ccnc3c(F)cccc23)cc1` gave a melting point of 81 to 82 °C.

Consider `CCCCCCCCc1ccc(OC(=O)c2ccc([C@H]3CC[C@H](CCC)C3)cc2)cc1` (relative stereo), for which the melting point came to 36 °C.

Consider `CCc1cc2c(s1)N(C(=O)N(C)C)CCN=C2c1ccccc1`, for which the melting point was in the range of 237 to 238 °C.

`CCOc1cc2cc3c(c(-c4ccncc4)c2cc1OCC)C(=O)NC3=O` gave a melting point of 210 to 213 °C.

`COc1ccc(-c2[nH]nc3c2C(=O)c2c(NC(=O)NNC(=O)c4ccccc4OC)cccc2-3)cc1`: the melting point amounted to 269 °C.

`N#Cc1c(-c2cc3ccccc3s2)nn(-c2ccccc2)c1N` came in with a melting point of 260 to 262 °C.

`COc1ccc(-c2nc3cc(C(N)=O)ccc3[nH]2)c2ccc(C(F)(F)F)nc12` had a melting point of 205 to 207 °C.

The molecule `Cc1ccc(-c2c([N+](=O)[O-])oc3ccccc23)cc1C` registered a melting point of 125 to 133 °C.

`COc1cc(C=C2OC(C)=CC2=O)ccc1O` came in with a melting point of 168 to 170 °C.

As to `CCCCc1ncc(/C=C/CC(=O)O)n1Cc1ccccc1Cl`, the melting point is 135 to 137 °C.

`O=C1c2cc(F)ccc2C(=O)c2c1nc1ccccn21` yielded a melting point of over 260 °C.

`CC(C)(C)c1ccc(C#N)cc1[N+](=O)[O-]` displayed a melting point of 70.5 to 71.5 °C.

For the molecule `CC(=O)N[C@@H](CSC(=O)c1ccccc1)C(=O)NCCSC(=O)c1ccccc1`, the melting point is 188 to 190 °C.

Take `CC(=O)Nc1ccc2c(c1)C(=O)N(CCCl)CO2`: the melting point was in the range of 133 to 135 °C.

Consider `Nc1cc(-n2ccnc2)c(F)cc1[N+](=O)[O-]`, for which the melting point was 122 to 123 °C.

With `Clc1ccc2c(c1)C(c1ccccc1Cl)=CCc1nncn1-2`, the melting point lay within 189 to 190 °C.

`CC(=O)OC(OC(C)=O)c1ccc([N+](=O)[O-])cc1` returned a melting point of 124 to 126 °C.

With `C=CC(=O)OCC(=O)OCCCCCCOC(=O)COC(=O)C=C`, the melting point came to 66 °C.

Regarding `Oc1ccc(-c2ncc3ncc(-c4ccsc4)cc3n2)cc1`, the melting point was in the range of 248 to 250 °C.

As to `COc1ccc(/C=C(\C#N)c2ccc(C(F)(F)F)cc2)cc1OC1CCCC1`, the melting point lay within 96 to 99 °C.

The molecule `CCCCCCCCCCCC(=O)Nc1ccc2nc(S)[nH]c2c1` registered a melting point of 266 to 267 °C.

With `CC(C)Oc1ccc(N)c(CC#N)n1`, the melting point fell in the range of 83 to 85 °C.

As for `CCOC(=O)C1=Cc2sccc2S(=O)(=O)N1C`, the melting point was 87 to 89 °C.

In turn, `Nc1cc2c(Nc3ccc(Cl)c(Br)c3)ncnc2cn1` had a melting point of 271 to 274 °C.

For the molecule `CC1(C)CC(OC(=O)c2cccc(C(=O)OC3CC(C)(C)N(OC4CCCCC4)C(C)(C)C3)c2)CC(C)(C)N1OC1CCCCC1`, the melting point fell in the range of 135 to 141 °C.

In the case of `CN(C)C(=S)Oc1ccc(C(=O)c2ccccc2C#N)cc1`, the melting point came out at 138 °C.

In turn, `CCOC(=O)C1C(=O)N(c2ccc(Cl)c(Cl)c2)N=C1C` (centres undefined) returned a melting point of 147 to 148 °C.

`CS(=O)(=O)c1ccc(-c2nc3cc(C4CCN(C(=O)OCc5ccccc5)CC4)ccc3o2)c(F)c1` displayed a melting point of 172 to 175 °C.

In the case of `CC(=O)Nc1ccc(OC(C)=O)c(C)c1C`, the melting point was in the range of 155 to 156 °C.

`CC1=C(Cc2ccc(Cl)cc2)C(=O)C2C=CC=CC2C1=O` (centres undefined) had a melting point of 134 to 135 °C.

In turn, `FC(Cc1ccc(Cl)cc1)(Cn1cncn1)Cn1cncn1` yielded a melting point of 161 to 163 °C.

In turn, `CCCCn1nc(CCc2ccccc2)nc1Cc1ccc(-c2ccccc2-c2nnn[nH]2)nc1` displayed a melting point of 121 to 123 °C.

In the case of `O=C(NC1CCC(CCN2CCC(c3cccc4c3CCO4)CC2)CC1)c1ccc(N2CCS(=O)(=O)CC2)cc1` (centres undefined), the melting point stood at 282 °C.

On to `CCCc1c(OCCCOc2cc(OCc3ccccc3)c(-c3ccc(F)cc3)cc2CC)cccc1Oc1cc(F)ccc1C(=O)OC`, for which the melting point fell in the range of 77 to 78 °C.

The molecule `Cc1cc(-c2cnn3c(C(F)(F)F)cc(-c4ccc(F)c(Cl)c4)nc23)cc(C)n1` gave a melting point of 271 °C.

In turn, `Nc1sc2c(c1C(=O)c1ccc3ccccc3c1)CCN(Cc1ccccc1F)C2` had a melting point of 183 to 185 °C.

Turning to `O=C(O)CCC(F)(F)C(F)(F)CCC(=O)O`, the melting point is 204 °C.
